According to paper PMC4865847, “Putative histidine kinase inhibitors with antibacterial effect against multi-drug resistant clinical isolates identified by in vitro and in silico screens” (Scientific Reports, 2016):
≈ marks a conversion by molar mass, not a printed value. Where “and” joins values, the source holds several entries; their conditions need not be identical. Equal values may be shown once. Read-outs that look alike come from different tables or passages of the source. Marks after values point to notes of the source that are not given here.

Experiments:
S. pneumoniae WalK = biological target: T1, S. pneumoniae WalK (Streptococcus pneumoniae, UniProt Q8DPL8); experiment: In vitro autophosphorylation kinase assay with γ-32P-ATP, WalK; format: biochemical; conditions: autophosphorylation, one time point (30 sec), 10% DMSO
T1 construct: WalK (amino acids from 208 to 449); N-terminal His6-3C site of vector pOPINF (own knowledge of the vector); made in house; host or cells: E. coli RIL
Method: (§1) To evaluate the inhibitory capacity of selected hits from DSF, SBVS and LBSS in vitro autophosphorylation kinase assays with γ-^32P-ATP were performed as previously described. Ligands were dissolved in 100% DMSO. […] Controls lacking ligands contained an equal concentration of DMSO. Inhibition of autophosphorylation was determined by incubating 0.12 mg/ml (≈4 μM) HK and up to 20 mM fragment in kinase buffer (50 mM Tris HCl, pH 8.5, 50 mM KCl, 5 mM MgCl2, 0.5 mM EDTA and 0.1 mM DTT). Autophosporylation reactions were initiated by addition of 0.1 μCi/μl γ-^32P-ATP containing from 0.03 to 0.06 μM ATP (final concentrations). Autophosphorylation was quenched with 2xSDS-PAGE sample buffer supplemented with 50 mM EDTA. […] After electrophoresis, the bottoms of the gels were removed to lower the background from the unincorporated radiolabeled ATP. Gels were dried without staining on a Bio-Rad Gel Air drying system and the phosphorylated protein was quantified by phosphor-imaging. Prism GraphPad was used for curve fitting and statistical analysis.

[1] = Solubility in kinase buffer; format: physicochemical; conditions: kinase buffer with 10% DMSO, pH 8.5, aqueous with cosolvent or surfactant or cyclodextrin, kinetic from dmso stock; kinase buffer in the presence of 10% DMSO; read-out: concentration above which not soluble / reduced solubility in kinase buffer
S. aureus PhoR (PhoR^S) [2] = biological target: T2, S. aureus PhoR (PhoR^S) (Staphylococcus aureus, UniProt Q2FXN7); experiment: In vitro autophosphorylation kinase assay with γ-32P-ATP, PhoR^S; format: biochemical; conditions: IC50 PhoR^S, autophosphorylation, one time point (30 sec), 10% DMSO
Method: (§2) To evaluate the inhibitory capacity of selected hits from DSF, SBVS and LBSS in vitro autophosphorylation kinase assays with γ-^32P-ATP were performed as previously described. Ligands were dissolved in 100% DMSO. […] Controls lacking ligands contained an equal concentration of DMSO. Inhibition of autophosphorylation was determined by incubating 0.12 mg/ml (≈4 μM) HK and up to 20 mM fragment in kinase buffer (50 mM Tris HCl, pH 8.5, 50 mM KCl, 5 mM MgCl2, 0.5 mM EDTA and 0.1 mM DTT). Autophosporylation reactions were initiated by addition of 0.1 μCi/μl γ-^32P-ATP containing from 0.03 to 0.06 μM ATP (final concentrations). Autophosphorylation was quenched with 2xSDS-PAGE sample buffer supplemented with 50 mM EDTA. Samples were applied without heating to 15% (w/v) Tris-glycine SDS-polyacrylamide gels. After electrophoresis, the bottoms of the gels were removed to lower the background from the unincorporated radiolabeled ATP. Gels were dried without staining on a Bio-Rad Gel Air drying system and the phosphorylated protein was quantified by phosphor-imaging. Prism GraphPad was used for curve fitting and statistical analysis.

[3] = tested on: Staphylococcus epidermidis; experiment: Antibacterial susceptibility testing (MIC/MBC), S. epidermidis; format: cell-based; conditions: for MBC / MIC: Staphylococcus epidermidis, DSM20044, strain DSM 20044; for MIC: read-out: MIC S. epidermidis DSM 20044; for MIC S. epidermidis DSM 20044: strain DSM 20044
Method: (§3) Minimal inhibitory concentrations (MICs) were determined following a standard double-dilution method. […] For S. pneumoniae MICs were determined by adapting the standard double-dilution method to anaerobic conditions and of this microorganism (use of Todd Hewitt Yeast extract with 200 U/mL of catalase and continuous monitoring of growth).

Escherichia coli = experiment: Antibacterial susceptibility testing (MIC/MBC), E. coli; format: cell-based; conditions: strain CFT 073; for MBC / MIC: Escherichia coli; for MBC: read-out: MBC E. coli CFT 073; for MIC: read-out: MIC E. coli CFT 073
Method: as §3

E. coli PhoR (PhoR^E) [4] = biological target: T3, E. coli PhoR (PhoR^E) (Escherichia coli, UniProt P08400); experiment: Aggregation analysis by native-PAGE, PhoR^E; conditions: 2 mM (S5 and S6 5 mM), 10% DMSO
T3 construct: The catalytic portion (DHp and CA domain) of E. coli PhoR (PhoR^E); made in house; host or cells: E. coli RIL
Method: (§4) E. coli PhoR and EnvZ, and S. aureus PhoR ([…], final concentration) were prepared in kinase buffer. […] DMSO in the assays was maintained to a final concentration 10% (v/v). After 30 min of incubation at room temperature Native polyacrylamide gel electrophoresis (Native-PAGE) loading buffer was added and samples loaded. Coomassie blue staining was used for protein visualization.

T. maritima HK853 = biological target: T4, T. maritima HK853 (Thermotoga maritima, UniProt Q9WZV7); experiment: In vitro autophosphorylation kinase assay with γ-32P-ATP, HK853; format: biochemical
T4 sequence (Q9WZV7 232-489): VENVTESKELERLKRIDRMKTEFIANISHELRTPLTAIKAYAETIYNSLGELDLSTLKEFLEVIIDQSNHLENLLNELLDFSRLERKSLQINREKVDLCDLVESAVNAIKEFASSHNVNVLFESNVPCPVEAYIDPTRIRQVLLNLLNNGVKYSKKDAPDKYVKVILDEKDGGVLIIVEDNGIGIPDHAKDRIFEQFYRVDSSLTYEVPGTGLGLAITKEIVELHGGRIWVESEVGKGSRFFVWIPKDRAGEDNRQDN
Method: as §2

Staphylococcus aureus = experiment: Antibacterial susceptibility testing (MIC/MBC), S. aureus; format: cell-based; conditions: Staphylococcus aureus, DSM20231, strain DSM 20231; for MBC: read-out: MBC S. aureus DSM 20231; for MIC: read-out: MIC S. aureus DSM 20231
Method: as §3

S. aureus PhoR (PhoR^S) [5] = biological target: T2, S. aureus PhoR (PhoR^S); experiment: Aggregation analysis by native-PAGE, PhoR^S; conditions: 2 mM (S5 and S6 5 mM), 10% DMSO
Method: as §4

E. coli PhoR (PhoR^E) [6] = biological target: T3, E. coli PhoR (PhoR^E); experiment: In vitro autophosphorylation kinase assay with γ-32P-ATP, PhoR^E; format: biochemical; conditions: autophosphorylation, one time point (30 sec), 10% DMSO
Method: as §1

T3 sequence (P08400 210-425): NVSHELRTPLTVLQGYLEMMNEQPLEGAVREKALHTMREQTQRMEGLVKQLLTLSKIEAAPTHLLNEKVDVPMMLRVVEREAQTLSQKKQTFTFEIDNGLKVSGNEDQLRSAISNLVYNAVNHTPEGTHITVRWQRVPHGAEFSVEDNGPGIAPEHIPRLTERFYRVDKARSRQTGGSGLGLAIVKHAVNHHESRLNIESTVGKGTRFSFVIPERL
T1 sequence (Q8DPL8 208-449): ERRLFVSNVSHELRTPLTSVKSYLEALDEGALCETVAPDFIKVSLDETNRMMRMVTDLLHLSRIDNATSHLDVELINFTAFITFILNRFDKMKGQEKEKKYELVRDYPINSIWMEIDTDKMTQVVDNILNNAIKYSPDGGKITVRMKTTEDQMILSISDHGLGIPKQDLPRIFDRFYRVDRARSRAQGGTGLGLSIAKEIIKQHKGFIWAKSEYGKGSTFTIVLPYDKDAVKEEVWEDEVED
T2 sequence (Q2FXN7 entry or part of it): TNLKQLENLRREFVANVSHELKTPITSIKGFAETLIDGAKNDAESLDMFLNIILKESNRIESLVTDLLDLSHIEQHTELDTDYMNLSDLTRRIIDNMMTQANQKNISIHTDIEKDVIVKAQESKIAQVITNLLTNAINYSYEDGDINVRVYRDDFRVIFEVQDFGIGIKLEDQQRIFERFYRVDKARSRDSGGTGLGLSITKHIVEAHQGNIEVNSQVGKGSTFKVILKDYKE

| SMILES | IC50 (S. pneumoniae WalK; IC50 WalK) | solubility [1] | IC50 (S. aureus PhoR (PhoR^S) [2]) | MBC [3] | MIC [3] | MIC S. epidermidis DSM 20044 [3] | MBC (Escherichia coli) | MIC (Escherichia coli) | HK aggregation, PhoR^E (E. coli PhoR (PhoR^E) [4]) | IC50 (T. maritima HK853) | MBC (Staphylococcus aureus) | MIC (Staphylococcus aureus) | HK aggregation, PhoR^S (S. aureus PhoR (PhoR^S) [5]) | IC50 (E. coli PhoR (PhoR^E) [6]; IC50 PhoR^E) | IC50 (S. pneumoniae WalK; read-out: IC50 WalK) | MIC E. coli CFT 073 (Escherichia coli) | IC50 (T. maritima HK853; autophosphorylation, one time point (30 sec), 10% DMSO, read-out: IC50 HK853) | IC50 (E. coli PhoR (PhoR^E) [6]; read-out: IC50 PhoR^E) |
| --- | --- | --- | --- | --- | --- | --- | --- | --- | --- | --- | --- | --- | --- | --- | --- | --- | --- | --- |
| CCC(Nc1cccc(NC(C)=O)c1)c1ccc(F)cc1 (centres unmarked) [S5] | > 1 mM | ≤ 1300 µM | ~1 mM | > 500 µg/mL | 500 µg/mL (≈ 1750 µM) | 500^# μg/ml | > 500 µg/mL | > 500 µg/mL | do not cause HK aggregation | > 5 mM | > 500 µg/mL | > 500 µg/mL | do not cause HK aggregation | ~1 mM | – | – | – | – |
| CC(=O)Nc1cccc(C(C)NCc2cccc(Br)c2)c1 (centres unmarked) [S6] | ~1 mM | – | 1.14 mM | > 500 µg/mL | 500 µg/mL (≈ 1440 µM) | 500^# μg/ml | > 500 µg/mL | 500 µg/mL (≈ 1440 µM) | do not cause HK aggregation | – | > 500 µg/mL | > 500 µg/mL | do not cause HK aggregation | – | > 1 mM | 500^# μg/ml | > 5 mM | 0.372 mM and 0.37 mM |
